Test results taken from PubChem BioAssay AID1745844 (Carcinogenic Potency Database (CPDB), 2022).
Calls of active or inactive are those of the source. The rule behind the calls is not given here.

System: rodent lifetime carcinogenesis bioassay, tumor incidence TD50
Experiment: carcinogenic potency in animals, long-term in vivo studies, CPDB compilation (AID 1745844)

CCN(CC)C(=O)Nc1ccc(OCC(O)CNC(C)(C)C)c(C(C)=O)c1 (stereo not drawn)
TD50 (mouse, strain Charles River CD1, females, in feed, site: lung, lesion: several types, types named in the paper, dosed 104 weeks, study length 104 weeks): 8020 mg/kg/day (inactive)
TD50 (mouse, strain Charles River CD1, males, in feed, site: lung, lesion: several types, types named in the paper, dosed 104 weeks, study length 104 weeks): 4710 mg/kg/day (inactive)
TD50 (rat, strain Sprague-Dawley, females, in feed, site: any site (literature study), lesion: several types, types named in the paper, dosed 104 weeks, study length 104 weeks): 2480 mg/kg/day (inactive)
TD50 (rat, strain Sprague-Dawley, females, in feed, site: liver, lesion: hepatocellular adenoma, dosed 104 weeks, study length 104 weeks): 38100 mg/kg/day (inactive)
TD50 (rat, strain Sprague-Dawley, females, in feed, site: liver, lesion: hepatocellular carcinoma, dosed 104 weeks, study length 104 weeks): 38100 mg/kg/day (inactive)
TD50 (rat, strain Sprague-Dawley, males, in feed, site: any site (literature study), lesion: several types, types named in the paper, dosed 104 weeks, study length 104 weeks): 684 mg/kg/day (inactive)
TD50 (rat, strain Sprague-Dawley, males, in feed, site: liver, lesion: hepatocellular adenoma, dosed 104 weeks, study length 104 weeks): 12400 mg/kg/day (inactive)
carcinogen call (rat, strain Sprague-Dawley, males, in feed, site: liver, lesion: hepatocellular carcinoma, dosed 104 weeks, study length 104 weeks): negative (inactive)

CN(CCO)N=O
TD50 (rat, strain Fischer 344, males, by gavage, site: liver, lesion: hemangiosarcoma, dosed 69 weeks, study length 69 weeks): 8.97 mg/kg/day
TD50 (rat, strain Fischer 344, males, by gavage, site: liver, lesion: hepatocellular carcinoma, dosed 69 weeks, study length 69 weeks): 1.29 mg/kg/day
TD50 (rat, strain Fischer 344, males, by gavage, site: nasal cavity, lesion: squamous-cell carcinoma, dosed 69 weeks, study length 69 weeks): 2.06 mg/kg/day
TD50 (rat, strain Fischer 344, males, by gavage, site: nasal cavity, lesion: squamous-cell papilloma, dosed 69 weeks, study length 69 weeks): 8.97 mg/kg/day

CC(CN1c2ccccc2Sc2ccccc21)N(C)C (stereo not drawn)
carcinogen call (mouse, strain B6C3F1, females, by gavage, site: any site (literature study), lesion: several types, types named in the paper, dosed 104 weeks, study length 105 weeks): negative (inactive)
TD50 (mouse, strain B6C3F1, females, by gavage, site: liver, lesion: hepatocellular adenoma + hepatoblastoma + hepatocellular carcinoma, dosed 104 weeks, study length 105 weeks): 47.8 mg/kg/day
TD50 (mouse, strain B6C3F1, males, by gavage, site: any site (literature study), lesion: several types, types named in the paper, dosed 103 weeks, study length 104 weeks): 393 mg/kg/day (inactive)
TD50 (mouse, strain B6C3F1, males, by gavage, site: liver, lesion: hepatocellular adenoma + hepatoblastoma + hepatocellular carcinoma, dosed 103 weeks, study length 104 weeks): 157 mg/kg/day
carcinogen call (rat, strain Fischer 344, females, by gavage, site: any site (literature study), lesion: several types, types named in the paper, dosed 103 weeks, study length 104 weeks): negative (inactive)
TD50 (rat, strain Fischer 344, females, by gavage, site: liver, lesion: hepatocellular adenoma + hepatoblastoma + hepatocellular carcinoma, dosed 103 weeks, study length 104 weeks): 418 mg/kg/day
TD50 (rat, strain Fischer 344, males, by gavage, site: any site (literature study), lesion: several types, types named in the paper, dosed 102 weeks, study length 102 weeks): 24.6 mg/kg/day
TD50 (rat, strain Fischer 344, males, by gavage, site: testis, lesion: interstitial-cell adenoma, bilateral + interstitial-cell adenoma, dosed 102 weeks, study length 102 weeks): 10.3 mg/kg/day (inactive)

CC(C)[N+](=O)[O-]
carcinogen call (rat, strain Sprague-Dawley, females, inhaled, site: any site (literature study), lesion: benign tumor, dosed 52 weeks, study length 52 weeks): negative (inactive)
carcinogen call (rat, strain Sprague-Dawley, females, inhaled, site: any site (literature study), lesion: benign tumor, dosed 52 weeks, study length 95 weeks): negative (inactive)
carcinogen call (rat, strain Sprague-Dawley, females, inhaled, site: any site (literature study), lesion: benign tumor, dosed 95 weeks, study length 95 weeks): negative (inactive)
carcinogen call (rat, strain Sprague-Dawley, females, inhaled, site: any site (literature study), lesion: malignant tumor, dosed 52 weeks, study length 52 weeks): negative (inactive)
carcinogen call (rat, strain Sprague-Dawley, females, inhaled, site: any site (literature study), lesion: malignant tumor, dosed 52 weeks, study length 95 weeks): negative (inactive)
carcinogen call (rat, strain Sprague-Dawley, females, inhaled, site: any site (literature study), lesion: malignant tumor, dosed 95 weeks, study length 95 weeks): negative (inactive)
carcinogen call (rat, strain Sprague-Dawley, females, inhaled, site: liver, lesion: one or several types, types not named, dosed 52 weeks, study length 52 weeks): negative (inactive)
carcinogen call (rat, strain Sprague-Dawley, females, inhaled, site: liver, lesion: one or several types, types not named, dosed 52 weeks, study length 95 weeks): negative (inactive)
TD50 (rat, strain Sprague-Dawley, females, inhaled, site: liver, lesion: one or several types, types not named, dosed 95 weeks, study length 95 weeks): 293 mg/kg/day (inactive)
TD50 (rat, strain Sprague-Dawley, males, inhaled, site: any site (literature study), lesion: benign tumor, dosed 52 weeks, study length 52 weeks): 9.06 mg/kg/day (inactive)
TD50 (rat, strain Sprague-Dawley, males, inhaled, site: any site (literature study), lesion: benign tumor, dosed 52 weeks, study length 95 weeks): 7.78 mg/kg/day (inactive)
carcinogen call (rat, strain Sprague-Dawley, males, inhaled, site: any site (literature study), lesion: benign tumor, dosed 95 weeks, study length 95 weeks): negative (inactive)
carcinogen call (rat, strain Sprague-Dawley, males, inhaled, site: any site (literature study), lesion: malignant tumor, dosed 52 weeks, study length 52 weeks): negative (inactive)
TD50 (rat, strain Sprague-Dawley, males, inhaled, site: any site (literature study), lesion: malignant tumor, dosed 52 weeks, study length 95 weeks): 23.6 mg/kg/day (inactive)
carcinogen call (rat, strain Sprague-Dawley, males, inhaled, site: any site (literature study), lesion: malignant tumor, dosed 95 weeks, study length 95 weeks): negative (inactive)
carcinogen call (rat, strain Sprague-Dawley, males, inhaled, site: liver, lesion: angioma, dosed 52 weeks, study length 95 weeks): negative (inactive)
carcinogen call (rat, strain Sprague-Dawley, males, inhaled, site: liver, lesion: angioma, dosed 95 weeks, study length 95 weeks): negative (inactive)
carcinogen call (rat, strain Sprague-Dawley, males, inhaled, site: liver, lesion: one or several types, types not named, dosed 52 weeks, study length 52 weeks): negative (inactive)
